Source: patent publication US6095147A, “Method for photo-altering a biological system to improve biological effect” (The Regents of the University of California, priority 1994, dated 2000)

How the values were obtained:
[1] = Noninvasive laser fluorescence (HeCd) measurement of SnET2 uptake and distribution in ocular tissues after subconjunctival injection; type: in vivo, rabbit; conditions: for Axis Fluorescence Ratio (670 nm/570 nm) / Conjunctiva Fluorescence Ratio (670 nm/570 nm) / Iris Fluorescence Ratio (670 nm/570 nm) / Ratio of Fluorescence (Conjuctiva/Axis) / Ratio of Fluorescence (Conjuctiva/Iris): 3 hr
Protocol: (§1) Pharmacokinetics of the photosensitive agent or tin ethyl-etiopurpurin (SnET2) were studied after subconjunctival injections (0,25,50,75 ug; 11 rabbits). Noninvasive measurements were made at 0, 0.5, 1, 2, 3 and 4 hr postinjection using a HeCd based laser fluorescence diagnostic system (excitation-442 nm; detection-670 nm SnET2 fluorescence; tissue autofluorescense-570 nm). SnET2 uptake was determined by an elevated 670/570 nm ratio. Preoperative injections (0, 25, 50 and 75 ug; 8 rabbits) of SnET2 were given and posterior lip sclerectomies were performed after 3-4 hrs followed by post operative laser irradiation (665 nm; 100 mW/cm^2; 30 J/cm^2). […] Self absorption of the fluorescence was present in the higher doses for the conjunctiva. Fluorescence ratios (T=3 hr) were as follows. The fluorescence ratios are shown below in Table 2. The tissue ratios were: conjunctiva/iris: 0 (control)=1.2; 25 ug=63+/-17; 50 ug=54+/-31; 75 ug=4+/-1.2. Conjunctiva/optical axis: 0 (control)=1.4; 25 ug=109+/-37; 50 ug=78+/-10; 75 ug=11+/-2.5.
Noninvasive fluorescent measurements, using a HeCd laser, was made of the SnET2 to determine its uptake and distribution. Exposure of SnET2 with a HeCd laser, excites the tissue at 442 nanometers and detects 670 nanometer florescence for SnET2 and 570 nanometer for tissue autofluorescence. The higher the ratio (670 nm/570 nm), the higher the uptake. Measurements in the conjunctiva compared to the iris and of the conjunctiva as compared to the axis of the eye, namely the pupil, were compared three hours after injection. […] In this case the self-absorption of the 670 nm fluorescence by the SnET2 at such a high local concentration causes the intensity to actually decrease. […] This is also due to self-absorption. Note that for the iris and axis readings the signal does continue to increase with increasing injected dose due to the greater leakage into these areas of the eye with the higher injected doses. This is a negative, unwanted effect and is why the ratios of the conjuntiva/iris and conjuntiva/axis ratios decrease in Table 3. […] The decreased tissue ratios at the higher photosensitizer injection doses indicate lower specificity due to greater leakage from the injection site.

conjunctiva = experiment: Posterior lip sclerectomy (filtration surgery) with preoperative SnET2 injection and postoperative laser irradiation; type: in vivo, rabbit; conditions: 665 nm, 100 mW/cm^2
Protocol: as §1
Some of the animals of the group shown in Table 2 and 3 were treated with 665 nanometers laser light at 100 milliwatt per square centimeter (30 Joules per square centimeter) exposure with 8 millimeter diameter spot three to four hours after the injection of the SnET2 following filtering surgery in the eye.

[2] = 25 μg subconjunctival, 3 animals
[3] = 50 μg subconjunctival, 3 animals
[4] = 75 μg subconjunctival, 5 animals

SMILES: CCOC(=O)C1=Cc2c3nc(cc4nc(cc5[n-]c(cc6[n-]c2c(C)c6CC)c(C)c5CC)C(C)=C4CC)[C@@H](C)[C@]13CC.[Cl-].[Cl-].[Sn] (racemic) [SnET2, tin ethyl-etiopurpurin]
- Axis Fluorescence Ratio (670 nm/570 nm) [1, 2]: 0.26 +/- 0.03
- Conjunctiva Fluorescence Ratio (670 nm/570 nm) [1, 2]: 28.27 +/- 10.90
- Iris Fluorescence Ratio (670 nm/570 nm) [1, 2]: 0.44 +/- 0.08
- Ratio of Fluorescence (Conjuctiva/Axis) [1, 2]: 109+/-37
- Ratio of Fluorescence (Conjuctiva/Iris) [1, 2]: 63+/-17
- Axis Fluorescence Ratio (670 nm/570 nm) [1, 3]: 0.37 +/- 0.05
- Conjunctiva Fluorescence Ratio (670 nm/570 nm) [1, 3]: 31.70 +/- 8.60
- Iris Fluorescence Ratio (670 nm/570 nm) [1, 3]: 0.65 +/- 0.21
- Ratio of Fluorescence (Conjuctiva/Axis) [1, 3]: 78+/-10
- Ratio of Fluorescence (Conjuctiva/Iris) [1, 3]: 54+/-31
- Axis Fluorescence Ratio (670 nm/570 nm) [1, 4]: 1.30 +/- 0.90
- Iris Fluorescence Ratio (670 nm/570 nm) [1, 4]: 4.72 +/- 4.94
- Ratio of Fluorescence (Conjuctiva/Axis) [1, 4]: 11 +/- 2.5
- Ratio of Fluorescence (Conjuctiva/Iris) [1, 4]: 4 +/- 1.2
- Conjunctiva Fluorescence Ratio (670 nm/570 nm) ([1]; 75 μg subconjunctival, 5 animals, self-absorption of fluorescence): 15.14 +/- 13.60
- levels in the iris and optical axis ([1]; subconjunctival injection): small, but detectable levels
- time of peak conjunctival fluorescence post injection ([1]; subconjunctival injection): 3 h
- uptake and retention at the injection site (conjunctiva) ([1]; subconjunctival injection): preferentially taken up and preferentially remains in the area of the injection, namely the conjunctiva
- overall effect of photodynamic therapy on conjunctiva (conjunctiva; 30 J/cm^2): titratable, localized, transient, post operative avascular conjunctiva
- avascular conjunctiva, post operative (conjunctiva; SnET2 25, 50, 75 ug, 30 J/cm^2, 3-4 hrs after injection): large transient areas of avascular conjunctiva were produced
- limitation of avascular areas to filtering blebs (conjunctiva; at 4 weeks, 30 J/cm^2): limitation of avascular areas to filtering blebs at 4 weeks
